Laboratory results taken from PubChem BioAssay (NCI).
Several values for one entry are separate records, joined by “and”; a condition that tells them apart may be missing. Equal entries are not always repeated.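 Five compound concentrations were applied to cells in 96-well plates for 48 hours; endpoints were derived by simple linear interpolation of the resulting dose-response curve. Here, GI50 denotes the concentration required for 50% inhibition of growth. TGI marks complete inhibition of growth.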

Key:
Assay in all cases: NCI anticancer screen, dose series, 48 h
[1] = test system: NCI-H23 lung
[2] = test system: KM12 colon
[3] = test system: UACC-257 melanoma
[4] = test system: HCT-15 colon
[5] = test system: CAKI-1 renal
[6] = test system: OVCAR-4 ovarian
[7] = test system: HOP-62 NSCLC
[8] = test system: ACHN renal
[9] = test system: MCF7 breast
[10] = test system: NCI/ADR-RES ovarian

| SMILES | TGI [1] [µM] | TGI [2] [µM] | TGI [3] [µM] | TGI [4] [µM] | TGI [5] [µM] | TGI [6] [µM] | TGI [7] [µM] | TGI [8] [µM] | GI50 [1] [µM] | GI50 [2] [µM] | GI50 [3] [µM] | GI50 [4] [µM] | GI50 [5] | GI50 [8] [µM] | GI50 [6] [µM] | GI50 [7] [µM] | GI50 [9] [µM] | TGI [9] [µM] | GI50 [10] [µM] | TGI [10] [µM] |
| --- | --- | --- | --- | --- | --- | --- | --- | --- | --- | --- | --- | --- | --- | --- | --- | --- | --- | --- | --- | --- |
| CCOc1cc[n+](C(=C=[N-])C#N)cc1 | > 100 | > 100 | > 100 | > 100 | > 100 | > 100 | > 100 |  |  |  |  |  |  |  |  |  |  |  |  |  |
| OCC(O)C(OC1OC(CO)C(O)C(O)C1O)c1nn(-c2ccc(Cl)cc2)c2nc3cc(Cl)ccc3nc12 (stereo not given) | > 100 | > 100 | > 100 | > 100 |  | > 100 | > 100 | > 100 |  |  |  |  |  |  |  |  |  |  |  |  |
| Cc1ccc(SSCCCCS(=O)O)cc1 | 55.4 | 52.3 | 53.3 | 89.2 | 40.9 | 32 | 81.1 | 62.7 |  |  |  |  |  |  |  |  |  |  |  |  |
| C(=NCCN=Cc1cccc2ccccc12)c1cccc2ccccc12 | > 100 | > 100 | > 100 | > 100 | > 100 | > 100 |  | > 100 |  |  |  |  |  |  |  |  |  |  |  |  |
| CC1SC(c2cccc(Cl)c2)N(NC(=O)C(O)c2ccccc2)C1=O (stereo not given) | > 100 | > 100 | > 100 | > 100 | > 100 | > 100 | > 100 | > 100 | > 100 | > 100 | > 100 | > 100 | > 100 µM | > 100 | 75.4 | > 100 | > 100 | > 100 |  |  |
| CC(=O)Nc1ccc(OCC(O)CO)cc1 (stereo not given) | > 100 | > 100 | > 100 | > 100 | > 100 | > 100 | > 100 | > 100 |  |  |  |  |  |  |  |  |  |  |  |  |
| CCOc1ccccc1NC(=O)C(=O)c1c(O)c2ccc(O)cc2oc1=O | > 100 | > 100 | > 100 | > 100 | > 100 | > 100 | > 100 | > 100 |  |  |  |  |  |  |  |  |  |  |  |  |
| NC(=S)N=Nc1c(O)[nH]c2ccccc12 |  | > 1000 | > 1000 | 470 | 251 | > 1000 | 360 | 394 |  | 217 | 804 | 139 | 32 µM and 73.4 µM | 141 | 239 | 167 | 168 | 611 |  |  |
| CSc1nc(-c2cccc(NC(=O)CCl)c2)c(C#N)c(=O)n1C | 3.01 | 3.54 | 6.08 | 2.88 | 3.07 | 3.32 | 4.87 | 2.22 | 1.46 | 1.82 | 1.6 | 1.27 | 1.68 µM | 1.03 | 1.43 | 2.16 | 0.24 | 2.39 |  |  |
| O=C1OC(=O)C2C1C1C(c3ccccc3)=C(c3ccccc3)C2(O)C2C(=O)OC(=O)C12 (stereo not given) | > 100 | > 100 | > 100 | > 100 | > 100 | > 100 | > 100 | > 100 |  |  |  |  |  |  |  |  |  |  |  |  |
| O=S1Cc2ccccc2CSS1 (stereo not given) | 28.1 | 31.6 | 29.1 | 28.1 | 35.8 | 31.7 |  | 30.9 |  |  |  |  |  |  |  |  |  |  |  |  |
| CC1CCC2[C@@H](C)COC3O[C@]4(C)CCC1C32OO4 (stereo not given in full) | > 100 | > 100 | > 100 | > 100 | > 100 | > 100 | > 100 | > 100 |  |  |  |  |  |  |  |  |  |  |  |  |
| C/C(=N\NS(=O)(=O)c1ccccc1)c1ccc[n+]([O-])n1 | > 100 | > 100 | > 100 | > 100 | > 100 | > 100 | > 100 | > 100 |  |  |  |  |  |  |  |  |  |  |  |  |
| O=S1(=O)C=C(c2ccccc2)C(c2ccccc2)=C1 | 3.93 | 3.2 | 2.96 | 3.15 | 2.63 | 3.82 | 4.42 | 2.88 | 1.86 | 1.63 | 1.52 | 1.53 | 1.16 µM | 1.55 | 1.9 | 1.87 |  |  | 2.73 | 9.31 |
| O=C(OCc1ccccc1)c1ccccc1-c1c2ccc(=O)cc-2oc2cc(OCc3ccccc3)ccc12 | 49.6 | 31.3 | 67 | 63.3 | 58.5 | > 100 |  | > 100 |  |  |  |  |  |  |  |  |  |  |  |  |
| Cc1c(C(=O)Nc2ccc(Cl)cc2)nc(N)nc1-c1cccc(Cl)c1 | > 100 | > 100 | > 100 |  | > 100 | > 100 | > 100 | > 100 |  |  |  |  |  |  |  |  |  |  |  |  |
